From patent US4330558A, “Pharmaceutical composition and method for treating peripheral orthostatic hypotension” (Sumitomo Chemical Company, Limited, priority 1980, dated 1982)
Where two headings read alike, the source gives them in different places.

Key:
[1] = system: patients with FAP; test: Intravenous drip infusion test of DL-threo-DOPS in normal persons and FAP patients (pulse rate, blood pressure); assay type: in vivo, human; settings: 200 mg i.v. drip infusion over 2 hours
Procedure: (1) Intravenous drip infusion test of DL-threo-DOPS The test was carried out by administering 200 mg of DL-threo-DOPS in 400 ml of isotonic sodium chloride solution over 2 hours to four persons (2 normal persons and 2 FAP patients) by intravenous drip infusion (1.7 mg/min.). Changes in pulse rate and blood pressure were determined. In the graphs A to D of FIG. 1, the abscissa axes indicate time (min.) and the ordinate axes indicate changes in pulse rate, maximum blood pressure (mmHg) and minimum blood pressure (mmHg), and drip infusion rate of DL-threo-DOPS (mg/min.), respectively. In the graphs A to C, the symbol o indicates normal subjects (2 persons) and .cndot., FAP patients (2 persons).

[2] = system: patients with FAP; assay type: in vivo, human; settings: 600 mg oral
Procedure: (2) Oral administration test of DL-threo-DOPS
The test was carried out by administering orally 600 mg of DL-threo-DOPS to nine persons (4-normal persons and 5 FAP patients). Plasma norepinephrine levels and blood pressure were determined.
In the graphs A to C of FIG. 2, the abscissa axes indicate time (hrs.) and the ordinate axes indicate plasma norepinephrine level (pg/ml), change in maximum blood pressure (mmHg) and minimum blood pressure (mmHg), respectively. The results are expressed as mean±S.E.

[3] = system: FAP patients; test: Long term oral administration of DL-threo-DOPS in FAP patients (simple blind test, 4 weeks); assay type: in vivo, human; settings: 1.2 g/day oral
Procedure: (3) Long term oral administration of DL-threo-DOPS The clinical trial was carried out according to a simple blind test procedure. […] The patients refrained from taking any drug for one week before administration of DL-threo-DOPS. After 4 weeks of administration period of DL-threo-DOPS,the patients were given placebos containing lactose. […] In the graphs A to F of FIG. […] The results are expressed as mean±S.E.

[4] = system: patients suffering from various kinds of orthostatic hypotension; test: Effect of intravenous DL-threo-DOPS on blood pressure in patients suffering from various kinds of orthostatic hypotension; assay type: in vivo, human; settings: i.v. drip infusion
Procedure: Under the same condition as in FAP, DL-threo-DOPS was administered intravenously to patients suffering from familial diabetes mellitus, aortitis syndrome, idiopathic orthostatic hypotension, acute pan-dysautonomia and ectopic pineal tumor, respectively. Changes in pulse rate and blood pressure were determined. In the graphs A to D of FIGS. 4, 5, 6, 7 and 8, the abscissa axes indicate time (min.) and the ordinate axes indicate change in pulse rate, maximum blood pressure (mmHg) and minimum blood pressure (mmHg), and drip infusion rate of DL-threo-DOPS (mg/min.), respectively.

[5] = Acute toxicity, LD50 in mice; assay type: in vivo; settings: mouse, in vivo
From the text: (§1) Toxicity of threo-DOPS is extremely low. LD50 value in mice is more than 10 g/kg (p.o.) and about 10 g/kg (i.p.).

[6] = system: mice; test: Acute toxicity, LD50 in mice; assay type: in vivo
From the text: as §1

[7] = system: orthostatic hypotension; test: Clinical effect of threo-DOPS on blood pressure, summary of the pharmacological tests; assay type: in vivo, human
[8] = Clinical observation of side effects; assay type: in vivo, human
[9] = in a certain case; cited from earlier work
[10] = Comparison of effectiveness of L-isomer and DL-isomer in the pharmacological tests; assay type: in vivo; settings: L-isomer vs DL-isomer
From the text: In general, threo-DOPS exists as optical isomers and there are the L- and D-isomers as well as the racemic DL-isomer. The term "threo-DOPS" used herein means DL-threo-DOPS and L-threo-DOPS.

[11] = system: aromatic L-amino acid decarboxylase; settings: in the living body; cited from earlier work
[12] = summary of the pharmacological tests

With `N[C@H](C(=O)O)[C@H](O)c1ccc(O)c(O)c1` (relative stereo) [DL-threo-DOPS, DL-threo-3,4-dihydroxyphenylserine] the blood pressure response ([1]; FAP patients (2)) was “a sensitive hypertensive response was observed”, the “time course of the response” value ([1]; FAP patients (2)) was “gradual and sustained” and the “change in blood pressure” value ([1]; normal persons (2)) was “did not change either pulse rate or blood pressure”. For the same compound, the “change in pulse rate” value ([1]; normal persons (2)) was “did not change either pulse rate or blood pressure”, the “change in plasma norepinephrine level” value ([2]; FAP patients (FIG. 2)) was “almost parallel with that of blood pressure” and the “time at which plasma norepinephrine level was restored to the normal level after oral administration” value ([2]; FAP patients (FIG. 2)) was 5 h. The “absorption after oral administration” value ([2]; inferred from the results) was “absorbed in the intestine”, the “conversion by aromatic L-amino acid decarboxylase after oral administration” value ([2]; inferred from the results) was “converted to (-) norepinephrine” and the hypertensive action ([2]; FAP patients (5)) was “gradual and sustained hypertensive action”. The “time of peak of hypertensive action after oral administration” value ([2]; FAP patients (5)) was 5 h, the “change in blood pressure” value ([2]; normal subjects (4)) was “no significant change in blood pressure was observed” and the “activity of daily living” value [3] was “restored”. For the same compound, the “dizziness and giddiness caused by orthostatic hypotension” value [3] was “mitigated”, the side effect [3] was “No side effect was observed” and the “blood pressure at 11 a.m. and 1 p.m.” value ([3]; three patients suffering from orthostatic hypotension, 3 and 5 hours after administration) was “a significant rise of blood pressure was observed”. The pressor response ([4]; acute pan-dysautonomia, person) was “Pressor response was observed”, the pressor response ([4]; aortitis syndrome, person) was “Pressor response was observed” and the “selectivity for type of orthostatic hypotension” value ([4]; conclusion from cases (1) to (5)) was “selective effect on the "peripheral" type of orthostatic hypotension”. For the same compound, the pressor response ([4]; ectopic pineal tumor, person) was “Pressor response was not observed”, the pressor response ([4]; familial diabetes mellitus, patient A (asymptomatic orthostatic hypotension)) was “showed pressor response” and the pressor response ([4]; idiopathic orthostatic hypotension, person) was “Pressor response was observed”.
For `N[C@H](C(=O)O)[C@H](O)c1ccc(O)c(O)c1` (relative stereo) [threo-DOPS, threo-3,4-dihydroxyphenylserine], the LD50 ([5]; ip) was roughly 10000 mg/kg, the LD50 ([5]; po) was greater than 10000 mg/kg and the toxicity [6] was “extremely low”. The “effect on orthostatic hypotension” value ([7]; FAP as model of dysautonomia syndrome) was “effective on orthostatic hypotension, inducing substantial and sustained elevation of blood pressure”, the “effect on blood pressure of normal subjects and of patients suffering from central orthostatic hypotension” value [7, 12] was “does not have a significant effect on blood pressure” and the “effect on peripheral orthostatic hypotension” value [7, 12] was “selective effect on "peripheral" orthostatic hypotension”. For the same compound, the “side effect observed clinically” value [8] was “no side effect is observed clinically”.
For `NC(C(=O)O)C(O)c1ccc(O)c(O)c1` (centres unmarked) [DOPS], the “effect on blood pressure” value [9] is listed as “anti-hypertensive action”.
For `N[C@H](C(=O)O)[C@H](O)c1ccc(O)c(O)c1` [L-threo-DOPS, L-threo-3,4-dihydroxyphenylserine], the “amount for the same effect relative to the DL-isomer” value [10] is given as “same effect as the DL-isomer in one half the amount”, the “effectiveness relative to the DL-isomer” value [10] is given as “about twice as effective as the DL-isomer” and the “conversion by aromatic L-amino acid decarboxylase” value [11] is given as “converted to (-) norepinephrine”.
